Experimental data published in patent US12606568B2, “SMARCA degraders and uses thereof” (Kymera Therapeutics, Inc., priority 2020, dated 2026).

Legend:
Type in all cases: cell-based
SMARCA2 [1] = molecular target: T1, SMARCA2 (Homo sapiens, UniProt P51531); test: MSD SMARCA2 degradation in A549 cell line; set-up: endogenous in cells; settings: for Dmax: A549, A549 cells; for Dmax / DC50: 24 h; for DC50: read-out: SMARCA2 MSD A549 degradation 24 h: Average external-Abs DC50
Method: Example 53. MSD SMARCA2 Degradation in A549 Cell Line
Cells were seeded into 96-well plates (A549 cells: 2×10^4 cells/well/100 ul media) abd incubated overnight. The next day, 200 nl compound were added into the intermediate plate with Echo (Labcyte 550) from source plate containing a 3-fold serial dilution from top concentration of 1 mM. The culture medium was changed with 80 ul of fresh medium and 80 ul of 2× compound solution was added into the well to make a final concentration of 1000 nM, 333.3 nM, 111.1 nM, 37.04 nM, 12.35 nM, 4.115 nM, 1.372 nM, 0.457 nM, 0.152 nM and 0 nM (DMSO). The wells were mixed and then incubated for 24 hours. The media was aspirated from the cultures and 60 ul pre-chilled PIPA lysis buffer (Boston BioProducts BP-115D) with protease/phosphatase inhibitor (Roche 05892791001/Roche 04906837001) was added into the well to lyze the cells for 20 minutes at 4° C. The MSD plate (L15XA) was coated with 40 ul cell lysate and incubated at 4° C. overnight. The next day, the plate was washed three times with TBST (CST #9997S), 150 ul/well. The MSD plates was blocked with 150 ul blocking buffer per well and shaked for 1 hr at R^†, 600 rpm. The blocking buffer was 3% Blocker A (MSD, R93BA-4) in TBST. The MSD plate was washed three times with 150 ul/well of TBST and 25 ul/well of detection antibody (Rabbit anti-SMARCA2/BRM antibody, 100 μg/ml, ab223735) was added at final concentration of 1 ug/mi diluted in 1% o Blocking buffer and shaken for 1 hour at R^†, 600 rpm. The MSD plate was washed three times with 150 ul/well of TBST and 25 ul/well of SULFO-TAG anti-rabbit antibody (MSD, R32AB-1) was added at final concentration of 1 μg/ml diluted in […] Blocking buffer and shaken for 1 hour at R^†, 600 rpm. The MSD plate was washed three times with 150 ul/well of TBST and 150 ul/well of 2×MSD reading buffer diluted from 4× (MSD, R92TC-2) with water was added. Lastly, the MSD instrument was read.
(§1) The letter codes for SMARCA2 degradation potency (DC50) include: A (<100 nM), B (100-500 nM), C (501-1000 nM), and D (>1000 nM). The letter codes for the percentage of SMARCA2 degradation after 24 hours (Dmax % o) include: A (>90% o degradation), B (>70-90% o degradation), C (50-70% o degradation), and D (<50% degradation).

SMARCA4 = molecular target: T2, SMARCA4 (Homo sapiens, UniProt P51532); test: SMARCA4 Western blot MV4-11 degradation; settings: for Dmax: MV4-11, MV4-11 cells, read-out: SMARCA4 MSD MV411 degradation 24 h: average Dmax %; for Dmax / DC50: 24 h; for DC50: read-out: SMARCA4 MSD MV411 degradation 24 h: Mean external-Abs DC50
T2 construct: SMARCA2 and SMARCA4 protein degradation in MV4-11 cells; endogenous in cells; host or cells: MV4-11
T2 sequence (P51532 whole entry): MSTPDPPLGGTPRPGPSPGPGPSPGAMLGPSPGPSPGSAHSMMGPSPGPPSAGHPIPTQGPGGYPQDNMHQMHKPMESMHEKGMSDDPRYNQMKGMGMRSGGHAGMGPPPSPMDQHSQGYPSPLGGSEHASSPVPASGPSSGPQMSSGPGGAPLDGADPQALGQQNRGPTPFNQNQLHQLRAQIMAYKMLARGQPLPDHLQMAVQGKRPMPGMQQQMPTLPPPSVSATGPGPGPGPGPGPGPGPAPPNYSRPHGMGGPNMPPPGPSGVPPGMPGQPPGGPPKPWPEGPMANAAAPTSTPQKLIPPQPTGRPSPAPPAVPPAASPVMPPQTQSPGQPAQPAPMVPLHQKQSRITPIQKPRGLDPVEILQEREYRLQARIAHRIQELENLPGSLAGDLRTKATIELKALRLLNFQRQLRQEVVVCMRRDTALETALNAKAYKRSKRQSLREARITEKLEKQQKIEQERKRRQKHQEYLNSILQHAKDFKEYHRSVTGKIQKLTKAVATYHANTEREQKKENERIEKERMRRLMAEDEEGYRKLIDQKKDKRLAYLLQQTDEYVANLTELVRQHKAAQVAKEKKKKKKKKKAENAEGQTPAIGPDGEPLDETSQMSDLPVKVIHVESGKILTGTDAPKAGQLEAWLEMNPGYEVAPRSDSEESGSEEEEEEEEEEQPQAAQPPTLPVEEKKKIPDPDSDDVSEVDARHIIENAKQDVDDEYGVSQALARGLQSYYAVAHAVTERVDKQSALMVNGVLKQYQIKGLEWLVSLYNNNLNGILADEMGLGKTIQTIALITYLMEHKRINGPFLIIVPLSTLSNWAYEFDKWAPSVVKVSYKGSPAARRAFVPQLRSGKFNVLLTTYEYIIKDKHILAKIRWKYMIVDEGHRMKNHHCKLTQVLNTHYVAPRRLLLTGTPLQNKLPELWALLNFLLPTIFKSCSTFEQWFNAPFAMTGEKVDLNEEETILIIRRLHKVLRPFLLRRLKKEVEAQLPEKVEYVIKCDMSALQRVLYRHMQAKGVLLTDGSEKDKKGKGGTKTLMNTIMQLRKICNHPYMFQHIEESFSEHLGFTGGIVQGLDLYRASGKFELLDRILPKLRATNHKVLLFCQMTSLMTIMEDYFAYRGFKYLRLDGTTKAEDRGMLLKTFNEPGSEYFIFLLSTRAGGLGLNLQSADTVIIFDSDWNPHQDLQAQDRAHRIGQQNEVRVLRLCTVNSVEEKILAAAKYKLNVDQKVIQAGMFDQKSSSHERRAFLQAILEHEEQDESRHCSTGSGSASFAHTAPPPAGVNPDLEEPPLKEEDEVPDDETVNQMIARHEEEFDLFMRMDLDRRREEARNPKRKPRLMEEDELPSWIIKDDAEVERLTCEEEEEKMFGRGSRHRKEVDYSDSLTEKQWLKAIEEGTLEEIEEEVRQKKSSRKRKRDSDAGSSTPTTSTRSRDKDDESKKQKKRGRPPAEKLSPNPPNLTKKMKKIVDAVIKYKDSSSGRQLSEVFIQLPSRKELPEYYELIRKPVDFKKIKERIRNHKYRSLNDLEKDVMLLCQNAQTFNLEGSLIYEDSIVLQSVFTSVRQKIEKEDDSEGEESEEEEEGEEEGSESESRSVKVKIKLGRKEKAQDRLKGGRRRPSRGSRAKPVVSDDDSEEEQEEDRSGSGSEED
Method: (§2) Example 54. SMARCA2 and SMARCA 4 Western Blot MV4-11 Degradation
(§3) Cells were seeded into 6-well plates (MV4-11: 4×10^6 cells/well/1 ml) and 1 ml of 2× compound solution was added into the well to make the final concentration and the plates were mixed well and incubated for 24 hours (No cytotoxicity was observed). The cell were collected with media and spun at 3000 rpm for 5 minutes. The supernatant was aspirated and the well and the cells were washed with cold PBS once and combined for centrifugation again; the supernatant aspirated again. 200 ul pre-chilled RIPA lysis buffer (Boston BioProducts BP-115D) with protease/phosphatase inhibitor (Roche 05892791001/Roche 04906837001) was directly added into the tube to lyze the cells for 20 minutes on ice. The cell lysate were collected into EP tubes and spun at 13000 rpm for 20 minutes and 72 ul supernatant was transferred to a fresh EP tube containing 18 ul of 5× loading buffer (Beyotime Bio P0015) to make the loading samples. The samples were heated to 100° C. for 10 minutes and cooled to RT and microcentrifuged. 20 ul of samples were loaded onto SDS-PAGE gel (Novex, WG1402BOX) and the gel was run at 80 V for 20 minutes and 120 V for 1.5 hours. The samples were electrotransfer to a NC membrane using wet-transfer method with 250 mA for 2.5 hours. The membrane was blocked with LICOR blocking buffer (LI-COR, 927-50000) for 1 hour. The membrane was washed three times with TBST (CST #9997S), 5 minutes each. Incubation was performed with primary antibody prepared in blocking buffer with 0.1% Tween-20 (Solarbio, P8220) at 4° C. overnight (Anti-SMARCA2/BRM antibody (ab15597) 1:500; Anti-BRG1 antibody [EPR3912] (ab108318) 1:1000; Rabbit anti-Baf180 antibody [EPR15860] (Abcam, ab196022) 1:1000; mouse anti-beta-Actin (8H10D10) (CST #3700) 1:10000). The membrane was washed three times with TBST, 5 minutes each. Incubation with secondary antibody was performed for 1 hour at RT (anti-rabbit IgG (Licor, 926-32211) 1:5000; anti-mouse IgG (LI-COR, 926-68070) 1:5000). The membrane was washed three times with TBST, 5 minutes each and lastly the LiCOR was read.
as §1, with “SMARCA” for “SMARCA2”, “%)” for “% o)”, “(>90%” for “(>90% o”, “(>70-90%” for “(>70-90% o”, “(50-70%” for “(50-70% o”

SMARCA2 [2] = molecular target: T1, SMARCA2; test: SMARCA2 Western blot MV4-11 degradation; set-up: SMARCA2 and SMARCA4 protein degradation in MV4-11 cells; endogenous in cells; host or cells: MV4-11; settings: for Dmax: MV4-11, MV4-11 cells, read-out: SMARCA2 MSD MV411 degradation 24 h: average Dmax %; for Dmax / DC50: 24 h; for DC50: read-out: SMARCA2 MSD MV411 degradation 24 h: Mean external-Abs DC50
Method: as §2, §3
as §1, with “SMARCA” for “SMARCA2”, “%)” for “% o)”, “(>90%” for “(>90% o”, “(>70-90%” for “(>70-90% o”, “(50-70%” for “(50-70% o”

T1 sequence (P51531 whole entry): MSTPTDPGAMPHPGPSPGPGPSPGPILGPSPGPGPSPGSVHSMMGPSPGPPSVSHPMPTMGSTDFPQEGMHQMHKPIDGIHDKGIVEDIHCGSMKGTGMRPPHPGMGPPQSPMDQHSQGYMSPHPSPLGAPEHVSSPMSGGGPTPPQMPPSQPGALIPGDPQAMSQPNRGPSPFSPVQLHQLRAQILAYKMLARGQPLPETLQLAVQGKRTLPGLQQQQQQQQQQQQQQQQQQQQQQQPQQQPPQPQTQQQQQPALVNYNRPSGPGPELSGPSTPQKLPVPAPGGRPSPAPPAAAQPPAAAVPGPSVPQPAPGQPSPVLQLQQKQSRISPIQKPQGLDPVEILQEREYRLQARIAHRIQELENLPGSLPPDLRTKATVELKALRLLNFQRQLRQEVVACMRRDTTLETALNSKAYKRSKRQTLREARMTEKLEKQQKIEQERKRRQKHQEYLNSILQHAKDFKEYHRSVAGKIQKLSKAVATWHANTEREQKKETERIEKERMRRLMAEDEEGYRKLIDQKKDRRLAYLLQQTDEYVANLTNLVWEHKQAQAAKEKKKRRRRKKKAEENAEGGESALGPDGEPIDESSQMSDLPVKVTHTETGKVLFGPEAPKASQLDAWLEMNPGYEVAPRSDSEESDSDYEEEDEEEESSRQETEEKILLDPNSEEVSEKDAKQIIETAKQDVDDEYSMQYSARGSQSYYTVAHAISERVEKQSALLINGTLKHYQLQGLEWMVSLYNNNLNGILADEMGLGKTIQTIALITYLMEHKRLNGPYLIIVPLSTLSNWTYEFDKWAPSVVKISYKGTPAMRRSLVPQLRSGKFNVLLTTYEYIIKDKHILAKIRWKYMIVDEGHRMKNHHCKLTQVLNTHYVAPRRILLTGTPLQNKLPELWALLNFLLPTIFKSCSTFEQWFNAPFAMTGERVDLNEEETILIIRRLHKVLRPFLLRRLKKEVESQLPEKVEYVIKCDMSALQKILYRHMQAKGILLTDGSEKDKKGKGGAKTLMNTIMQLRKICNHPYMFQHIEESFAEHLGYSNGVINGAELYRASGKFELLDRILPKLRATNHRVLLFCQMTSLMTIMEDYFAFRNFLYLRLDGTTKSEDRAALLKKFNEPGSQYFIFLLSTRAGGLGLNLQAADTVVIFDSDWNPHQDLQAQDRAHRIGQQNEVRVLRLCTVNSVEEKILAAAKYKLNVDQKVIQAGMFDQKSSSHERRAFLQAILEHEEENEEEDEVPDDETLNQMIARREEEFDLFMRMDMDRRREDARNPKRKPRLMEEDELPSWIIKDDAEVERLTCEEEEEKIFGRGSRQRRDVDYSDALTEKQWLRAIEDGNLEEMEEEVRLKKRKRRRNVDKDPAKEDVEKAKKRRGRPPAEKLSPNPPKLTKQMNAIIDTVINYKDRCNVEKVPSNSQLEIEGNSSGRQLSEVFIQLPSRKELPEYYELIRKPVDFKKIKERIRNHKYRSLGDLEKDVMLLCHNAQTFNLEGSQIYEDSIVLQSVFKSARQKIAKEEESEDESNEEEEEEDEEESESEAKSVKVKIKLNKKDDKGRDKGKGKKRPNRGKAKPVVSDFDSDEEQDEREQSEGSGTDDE

SMILES | Dmax (SMARCA2 [1]) [%] | DC50 (SMARCA2 [1]; A549 cells) [nM] | Dmax (SMARCA4) [%] | DC50 (SMARCA4; MV4-11 cells) [nM] | Dmax (SMARCA2 [2]) [%] | DC50 (SMARCA2 [2]; MV4-11 cells) [nM] | SMARCA2 MSD A549 degradation 24 h: Average Dmax % (SMARCA2 [1]; A549 cells) | SMARCA4 MSD MV411 degradation 24 h: average Dmax % (SMARCA4; MV4-11 cells) | SMARCA2 MSD MV411 degradation 24 h: average Dmax % (SMARCA2 [2]; MV4-11 cells)
Cc1ncsc1-c1ccc(CNC(=O)[C@@H]2C[C@@H](O)CN2C(=O)[C@@H](NC(=O)[C@H]2CC3(C2)C[C@H](N2CCC(Oc4ccc(N5C6CCC5CN(c5cc(-c7ccccc7O)nnc5N)C6)cn4)CC2)C3)C(C)(C)C)cc1 (stereo partly drawn) [I-39, (2S,4R)-1-((2S)-2-(6-(4-((5-(3-(3-amino-6-(2-hydroxyphenyl)pyridazin-4-yl)-3,8-diazabicyclo[3.2.1]octan-8-yl)pyridin-2-yl)oxy)piperidin-1-yl)spiro[3.3]heptane-2-carboxamido)-3,3-dimethylbutanoyl)-4-hydroxy-N-(4-(4-methylthiazol-5-yl)benzyl)pyrrolidine-2-carboxamide] | 50 to 70 | > 1000 | > 90 | > 1000 | 70 to 90 | 100 to 500 |  |  | 
Cc1ncsc1-c1ccc(CNC(=O)[C@@H]2C[C@@H](O)CN2C(=O)C(c2cc(N3CCC(N4CCC(c5cnc(N6C7CCC6CN(c6cc(-c8ccccc8O)nnc6N)C7)nc5)CC4)CC3)no2)C(C)C)cc1 (mixture of isomers) [I-47, (2S,4R)-1-(2-(3-(4-(2-(3-(3-amino-6-(2-hydroxyphenyl)pyridazin-4-yl)-3,8-diazabicyclo[3.2.1]octan-8-yl)pyrimidin-5-yl)-[1,4′-bipiperidin]-1′-yl)isoxazol-5-yl)-3-methylbutanoyl)-4-hydroxy-N-(4-(4-methylthiazol-5-yl)benzyl)pyrrolidine-2-carboxamide] | > 90 | < 100 | > 90 | < 100 | > 90 | < 100 |  |  | 
Cc1ncsc1-c1ccc([C@H](C)NC(=O)[C@@H]2C[C@@H](O)CN2C(=O)[C@@H](NC(=O)[C@H]2CCC3(CC2)C[C@H](N2CCC(c4cnc(N5C6CCC5CN(c5cc(-c7ccccc7O)nnc5N)C6)nc4)CC2)C3)C(C)(C)C)cc1 (stereo in doubt) [I-15, (2S,4S)-1-((2S)-2-(2-(4-(2-(3-(3-amino-6-(2-hydroxyphenyl)pyridazin-4-yl)-3,8-diazabicyclo[3.2.1]octan-8-yl)pyrimidin-5-yl)piperidin-1-yl)spiro[3.5]nonane-7-carboxamido)-3,3-dimethylbutanoyl)-4-hydroxy-N—((S)-1-(4-(4-methylthiazol-5-yl)phenyl)ethyl)pyrrolidine-2-carboxamide] | > 90 | 100 to 500 | 50 to 70 | > 1000 | > 90 | < 100 |  |  | 
Cn1nccc1-c1ccc(CNC(=O)[C@@H]2C[C@@H](O)CN2C(=O)[C@@H](NC(=O)[C@H]2CC3(C2)C[C@H](N2CCC(c4cnc(N5C6CCC5CN(c5cc(-c7ccccc7O)nnc5N)C6)nc4)CC2)C3)C(C)(C)C)cc1 (stereo partly drawn) [I-35, (2S,4R)-1-((2S)-2-(6-(4-(2-(3-(3-amino-6-(2-hydroxyphenyl)pyridazin-4-yl)-3,8-diazabicyclo[3.2.1]octan-8-yl)pyrimidin-5-yl)piperidin-1-yl)spiro[3.3]heptane-2-carboxamido)-3,3-dimethylbutanoyl)-4-hydroxy-N-(4-(1-methyl-1H-pyrazol-5-yl)benzyl)pyrrolidine-2-carboxamide] | 70 to 90 | 100 to 500 | 50 to 70 | > 1000 | 70 to 90 | < 100 |  |  | 
Cc1ncsc1-c1ccc([C@H](C)NC(=O)[C@@H]2C[C@@H](O)CN2C(=O)[C@@H](NC(=O)[C@H]2CC3(C2)C[C@H](N2CCC(c4ccc(N5C6CCC5CN(c5cc(-c7ccccc7O)nnc5N)C6)cc4)CC2)C3)C(C)(C)C)cn1 (single isomer, unassigned) [I-6] |  | > 1000 |  | > 1000 |  | 501 to 1000 | B (B (>70-90% o degradation)) | A (A (>90% degradation)) | C (C (50-70% degradation))
Cc1ncsc1-c1ccc(CNC(=O)[C@@H]2C[C@@H](O)CN2C(=O)[C@@H](NC(=O)CN2CC3(C2)CN(C2CCC(c4cnc(N5C6CCC5CN(c5cc(-c7ccccc7O)nnc5N)C6)nc4)CC2)C3)C(C)(C)C)cc1 (stereo partly drawn) [I-76, (2S,4R)-1-((2S)-2-(2-(6-(4-(2-(3-(3-amino-6-(2-hydroxyphenyl)pyridazin-4-yl)-3,8-diazabicyclo[3.2.1]octan-8-yl)pyrimidin-5-yl)cyclohexyl)-2,6-diazaspiro[3.3]heptan-2-yl)acetamido)-3,3-dimethylbutanoyl)-4-hydroxy-N-(4-(4-methylthiazol-5-yl)benzyl)pyrrolidine-2-carboxamide] | > 90 | 501 to 1000 | > 90 | < 100 | > 90 | < 100 |  |  | 
Cc1ncsc1-c1ccc(CNC(=O)[C@@H]2C[C@H](O)CN2C(=O)[C@@H](NC(=O)[C@H]2CC3(C2)C[C@H](N2CCC(c4cnc(N5C6CCC5CN(c5cc(-c7ccccc7O)nnc5N)C6)nc4)CC2)C3)C(C)(C)C)cc1 (stereo partly drawn) [I-80, (2S,4S)-1-((2S)-2-(6-(4-(2-(3-(3-amino-6-(2-hydroxyphenyl)pyridazin-4-yl)-3,8-diazabicyc-lo[3.2.1]octan-8-yl)pyrimidin-5-yl)piperidin-1-yl)spiro[3.3]heptane-2-carboxamido)-3,3-dimethylbutanoyl)-4-hydroxy-N-(4-(4-methylthiazol-5-yl)benzyl)pyrrolidine-2-carbox-amide] |  | > 1000 |  | > 1000 |  |  |  |  | 
